# Where two headings read alike, the source gives them in different places.
# Assays:
# [1] = tested on: B16 melanocytes stimulated with NDP-MSH; assay: Anti-melanogenesis activity: melanin synthesis in B16 melanocytes stimulated with NDP-MSH; format: cell-based
# Description: The depigmenting effect was evaluated on a line of type B16 melanocytes stimulated with NDP-MSH, (natural hormone stimulating melanogenesis; Melanocyte Stimulating Hormone, [Nle, DPhe]-α-MSH). Melanin synthesis was evaluated.
# The anti-melanogenesis activity of the compounds in solution in DMSO was evaluated by measuring melanin synthesis in a model of B16 melanocytes stimulated with a stable derivative of α-MSH (natural melanogenesis stimulating hormone): NDP-MSH.
# The melanocytes were seeded in a 96-well plate and were cultured for 24 h (37° C., 5% CO2, DMEM 1 g/L glucose without phenol red supplemented with glucose at 3 g/L, L-glutamine at 2 mM, penicillin at 50 U/mL, streptomycin at 50 μg/mL, foetal calf serum (FCS) at 10%). After incubation, the culture medium was then replaced with culture medium supplemented or not supplemented (unstimulated control) with a stable derivative of α-MSH and containing or not containing (controls) the test compounds or the reference (kojic acid at 25, 100, 400, 800 μg/mL). Each experiment was carried out with n=3, apart from the controls carried out with n=6, then the cells were incubated for 72 h. Wells without cells received in parallel the same quantities of medium supplemented or not supplemented with NDP-MSH and containing or not containing the test compounds or the reference in order to quantify the background noise associated with the presence of the compounds.
# After incubation for 72 hours, the total melanin (intra- and extracellular) was quantified by measuring the absorption at 405 nm of each sample (direct reading of the culture plates) against a standard range of melanin (melanin concentrations tested from 0.78 to 100 μg/mL). The background noise, measured in the wells without cells, was subtracted from the measured values so as only to take into account the effect connected with melanin production, without taking into account the possible interference connected with the presence of the compounds. The results were expressed as percentage of melanin relative to the control as well as percentage inhibition.
# The operating conditions are the same as in Example 12.
# PPARα (h) = molecular target: T1, PPARα (h) (Homo sapiens, UniProt Q07869); assay: PPARα competitive radioligand binding assay (Cerep)
# T1 sequence (Q07869 1-468): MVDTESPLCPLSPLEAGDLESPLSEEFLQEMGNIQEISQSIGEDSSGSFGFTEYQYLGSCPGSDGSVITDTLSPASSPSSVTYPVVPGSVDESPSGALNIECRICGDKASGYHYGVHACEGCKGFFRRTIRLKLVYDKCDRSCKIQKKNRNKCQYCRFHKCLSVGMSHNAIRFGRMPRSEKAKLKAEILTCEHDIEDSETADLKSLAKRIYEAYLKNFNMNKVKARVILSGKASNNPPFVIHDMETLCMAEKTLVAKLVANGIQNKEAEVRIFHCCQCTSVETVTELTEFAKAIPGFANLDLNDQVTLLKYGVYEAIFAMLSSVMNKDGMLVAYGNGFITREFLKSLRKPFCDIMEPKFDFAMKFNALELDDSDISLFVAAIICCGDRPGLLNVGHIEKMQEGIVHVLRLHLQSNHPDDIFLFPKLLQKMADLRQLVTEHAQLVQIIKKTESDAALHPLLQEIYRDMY
# Description: The affinity of compound 1 for the PPAR receptors (α and γ) was tested by in vitro binding assays (tests carried out by the company Cerep).
# This is a nuclear receptor competitive binding assay, between a radiolabelled ligand and the test molecule (here compound 1).
# The principle of the technique consists of measuring the displacement of the radioactive ligand bound to the receptor by the test molecule. • Material and Methods
# The specific binding of the ligand is defined by the difference between total binding and non-specific binding determined in the presence of an excess of unlabelled ligand.
# The results are expressed as: • percentage of control specific binding ((measured specific binding/control specific binding)×100)) • percentage of inhibition of control specific binding ((100−(measured specific binding/control specific binding)) obtained in the presence of compound 1.
# The values of IC50 (concentration at which the maximum control specific binding is inhibited by 50%), and the Hill coefficient (nH) are determined by non-linear regression analysis of the curves of competition with a mean replicated value using adjustment of Hill's equation
# The inhibition constant (Ki) was calculated using the Cheng-Prusoff equation
# filaggrin = assay: In situ immunolabelling of filaggrin in keratinocytes; format: cell-based; details: normal human epidermal keratinocytes
# Text: Transglutaminase K, TGK, and filaggrin are two protein markers of epidermal differentiation involved in arrangement of the keratin filaments and formation of the envelope of the stratum corneum.
# PPARδ (h) = molecular target: T2, PPARδ (h) (Homo sapiens, UniProt Q03181); assay: PPARδ agonist effect, coactivator Alpha screen; format: biochemical
# T2 sequence (Q03181 1-441): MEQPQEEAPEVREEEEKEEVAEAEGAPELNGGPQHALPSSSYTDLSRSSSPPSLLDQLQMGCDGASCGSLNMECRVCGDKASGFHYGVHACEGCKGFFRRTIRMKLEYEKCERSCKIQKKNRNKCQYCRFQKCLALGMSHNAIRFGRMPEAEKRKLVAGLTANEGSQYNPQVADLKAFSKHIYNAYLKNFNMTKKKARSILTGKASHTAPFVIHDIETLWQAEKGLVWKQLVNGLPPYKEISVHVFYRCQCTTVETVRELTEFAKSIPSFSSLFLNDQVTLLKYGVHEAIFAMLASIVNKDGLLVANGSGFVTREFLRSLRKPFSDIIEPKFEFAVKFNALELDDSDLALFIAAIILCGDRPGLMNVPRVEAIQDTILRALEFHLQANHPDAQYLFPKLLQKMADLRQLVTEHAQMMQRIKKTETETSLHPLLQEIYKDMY
# Description: The agonist or antagonist activity of compound 1 on the PPAR receptors was tested by fluorescence techniques. • Material and Methods
# The results are expressed as: • percentage of control specific agonist response (measured specific response/control specific agonist response)×100) and • percentage inhibition of the control specific agonist response (100−((measured specific response)/control specific agonist response)×100)) obtained in the presence of compound 1.
# The EC50 values (concentration at which the maximum specific response is 50%) and the IC50 values (concentration at which the maximum control specific agonist response is inhibited by 50%) are determined by non-linear regression analysis of the concentration-response curves with a mean replicated value using adjustment of Hill's equation
# [2] = Melanocyte, NDP-MSH stimulated B16, 72 h, Table 2, read-out: Standardized data Inhibition (%) (melanin)
# [3] = Melanocyte, comparison with 2 reference molecules, Table 3, read-out: Standardized data Inhibition (%) (melanin)
smiles,measurement,setting,value
"Oc1ccccc1CCOc1ccc(F)cc1 [Compound 1, 2-[2-(4-fluoro-phenoxy)-ethyl]-phenol]","Depigmenting effect (inhibition of melanin synthesis), in words",[1]; 30 μM and 100 μM,clear inhibitory effect
same,Depigmenting effectiveness compared with the two reference products,"[1]; 30 μM and 100 μM, versus rucinol and [869743-37-3]",slightly more effective than the two reference products used
same,inhibition at 10 µM,"[1]; Melanocyte, 10 μM, NDP-MSH stimulated B16, 72 h, Table 2, read-out: Standardized data Inhibition (%) (melanin)",0%
same,inhibition at 30 µM,[1]; [2],93%
same,inhibition at 30 µM,[1]; [3],98%
same,inhibition at 100 µM,[1]; [2],112%
same,inhibition at 100 µM,[1]; [3],124%
same,inhibition at 10 µM,"PPARα (h); 10^−5 M, agonist radioligand, read-out: % Inhibition of control specific binding",0%
same,inhibition at 1 µM,"PPARα (h); 10^−6 M, agonist radioligand, read-out: % Inhibition of control specific binding",-2%
same,inhibition at 0.1 µM,"PPARα (h); 10^−7 M, agonist radioligand, read-out: % Inhibition of control specific binding",-5%
same,"Activity with respect to the PPARα receptor (binding, conclusion in words)",PPARα (h); 10^−7 to 10^−5 M,no activity
same,Protein expression of filaggrin,filaggrin,concentration-dependent stimulation of protein expression
same,% Control agonist response,PPARδ (h); 10^−5 M,2%
same,% Control agonist response,PPARδ (h); 10^−6 M,4%
same,% Control agonist response,PPARδ (h); 10^−7 M,2%
same,PPARδ agonist activity (conclusion in words),PPARδ (h); 10^−7 to 10^−5 M,not an agonist

# — patent US20150004110A1, “NOVEL ANTI-AGING AND DEPIGMENTING COSMETIC COMPOSITIONS” (DIVERCHIM, priority 2011, published 2015)
